The text below walks through data of ChEMBL document CHEMBL3868628, “Dimeric sesquiterpene and thiophenes from the roots of Echinops latifolius” (Bioorg Med Chem Lett, 2016).

The species named for the first data set is Mus musculus. Put plainly: Cytotoxicity against mouse RAW264.7 cells assessed as reduction in cell viability at 1 to 10 uM after 24 hrs by cell counting based colorimetric analysis. Conditions: raw264.7, 24 h. The class given is toxicity.
Take `C=C(C)[C@@H]1CC[C@]2(C)C(=C(C)OC3=C2C[C@H]2C4C[C@H](C(C)C)CC[C@@]4(C)CC(=O)[C@@]2(O)O3)C1` (stereo not given in full): the Activity entry was “Toxic”.

Test system in the next data set: not listed separately
Nature of the data set: Antiinflammatory activity in mouse RAW264.7 cells assessed as reduction in LPS-induced NO production after 24 hrs in presence of LPS by colorimetric analysis. The class given is functional, cell-based. The settings on record: RAW264.7, 24 h.
`CC#Cc1ccc(-c2ccc(C(O)CO)s2)s1` (stereo not given): the 50% inhibitory concentration (IC50) was found to be 48.7 µM.
Consider `C/C=C\C#CC#Cc1ccc(C(O)CO)s1` (stereo not given), for which the IC50 is 12.8 µM.
Same read-out and setting: then `CC#Cc1ccc(-c2ccc(C(CO)OC)s2)s1` (stereo not given), with 30.9 µM; and `CC#Cc1ccc(-c2ccc(C=O)s2)s1`, with > 100 µM.
As to `CC#Cc1ccc(-c2ccc(C(=O)OC)s2)s1`, the half-inhibitory concentration (IC50) is > 100 µM.
Take `C/C=C/C#CC#Cc1ccc(C(O)CO)s1` (stereo not given): the concentration for half-maximal inhibition (IC50) turned out to be 28.2 µM.
Still for that read-out and setting: then `C=C1CCC[C@]2(C)C[C@]3(O)OC(=O)C(C)=C3C[C@@H]12` [ATRACTYLENOLIDE III], with > 100 µM; and `COc1ccc2c(c1)c(CC(=O)O)c(C)n2C(=O)c1ccc(Cl)cc1` [INDOMETHACIN], with 13.2 µM.
For `N=C(N)NN` [PIMAGEDINE], the IC50 is 24.2 µM.

Broadly, the IC50 is the midpoint of a concentration-inhibition curve.
